The values that follow come from ChEMBL document CHEMBL1158915, “The Effect of Aridanin Isolated from Tetrapleuratetraptera and Serotonin on the Isolated Gastrointestinal Tract Smooth Muscles of Biomphalaria glabrata and Uptake of Calcium” (1990).

Calls of active or inactive are those of the source. No cut-off for these calls is given here.

Assay [1] concerns Biomphalaria glabrata. In words: Inhibition of calcium uptake in Biomphalaria glabrata assessed as available calcium in test solution at 0.25 ppm after 9 weeks. Format: functional.
Assay [2] concerns Biomphalaria glabrata. In words: Inhibition of calcium uptake in Biomphalaria glabrata assessed as available calcium in test solution at 0.125 ppm after 4 weeks. Format: functional.
Assay [3] has as its system Biomphalaria glabrata. The experiment in a line: Effect on Biomphalaria glabrata intestinal rhythmicity assessed as potentiation of tissue contracture in presence of 1 to 100 nM methysergide. The conditions noted are these: Intestine. It is filed as functional, tissue-based.
Assay [4] relates to Biomphalaria glabrata. The experiment in a line: Inhibition of calcium uptake in Biomphalaria glabrata assessed as available calcium in test solution at 0.25 ppm after 4 weeks. It is filed as functional.
The test system of assay [5] is Biomphalaria glabrata. The experiment in a line: Effect on Biomphalaria glabrata intestinal rhythmicity assessed as potentiation of tissue contracture in presence of 10 uM propranolol. It is filed as functional, tissue-based. The conditions noted are these: Intestine.
For assay [6], the system named is Esophagus. The experiment in a line: Effect on Biomphalaria glabrata esophageal rhythmicity assessed as potentiation of tissue contracture in presence of 1 to 100 nM cyproheptadine. Format: functional, tissue-based.
Assay [7] deals with Biomphalaria glabrata. In words: Effect on Biomphalaria glabrata intestinal rhythmicity assessed as potentiation of tissue contracture in presence of 1 uM atropine. Format: functional, tissue-based. To be noted: Intestine.
Assay [8] concerns Biomphalaria glabrata. The experiment in a line: Effect on Biomphalaria glabrata intestinal rhythmicity assessed as potentiation of tissue contracture in presence of 0.1 uM verapamil. It is filed as functional, tissue-based. To be noted: Intestine.
Assay [9] relates to Biomphalaria glabrata. In words: Inhibition of calcium uptake in Biomphalaria glabrata assessed as available calcium in test solution at 0.25 ppm after 5 weeks. It is filed as functional.
Assay [10] concerns Esophagus. The experiment in a line: Effect on Biomphalaria glabrata esophageal rhythmicity assessed as potentiation of tissue contracture in presence of 0.1 uM verapamil. It is filed as functional.
The test system of assay [11] is Biomphalaria glabrata. In words: Inhibition of calcium uptake in Biomphalaria glabrata assessed as available calcium in test solution at 0.125 ppm after 1 week. Format: functional.
Assay [12] deals with Biomphalaria glabrata. The experiment in a line: Inhibition of calcium uptake in Biomphalaria glabrata assessed as available calcium in test solution at 0.125 ppm after 5 weeks. It is filed as functional.
Assay [13] concerns Biomphalaria glabrata. In words: Effect on Biomphalaria glabrata intestinal rhythmicity assessed as enhanced tissue contracture at 4.0 x 10^-7 to 3 x 10^-6 M. Format: functional, tissue-based. To be noted: Intestine.
Assay [14] has as its system Biomphalaria glabrata. The experiment in a line: Inhibition of calcium uptake in Biomphalaria glabrata assessed as available calcium in test solution at 0.25 ppm after 1 week. Format: functional.
Assay [15] has as its system Biomphalaria glabrata. In words: Inhibition of calcium uptake in Biomphalaria glabrata assessed as available calcium in test solution at 0.25 ppm after 10 weeks. It is filed as functional.
Assay [16] concerns Biomphalaria glabrata. In words: Inhibition of calcium uptake in Biomphalaria glabrata assessed as available calcium in test solution at 0.125 ppm after 8 weeks. It is filed as functional.
Assay [17] relates to Biomphalaria glabrata. In words: Inhibition of calcium uptake in Biomphalaria glabrata assessed as available calcium in test solution at 0.25 ppm after 6 weeks. It is filed as functional.
Assay [18] has as its system Biomphalaria glabrata. In words: Inhibition of calcium uptake in Biomphalaria glabrata assessed as available calcium in test solution at 0.125 ppm after 2 weeks. Format: functional.
Assay [19] has as its system Biomphalaria glabrata. The experiment in a line: Inhibition of calcium uptake in Biomphalaria glabrata assessed as available calcium in test solution at 0.125 ppm after 3 weeks. Format: functional.
In assay [20] the test system is Biomphalaria glabrata. The experiment in a line: Inhibition of calcium uptake in Biomphalaria glabrata assessed as available calcium in test solution at 0.125 ppm after 10 weeks. It is filed as functional.
The subject of assay [21] is Biomphalaria glabrata. The experiment in a line: Inhibition of calcium uptake in Biomphalaria glabrata assessed as available calcium in test solution at 0.25 ppm after 8 weeks. Format: functional.
Assay [22] relates to Biomphalaria glabrata. In words: Inhibition of calcium uptake in Biomphalaria glabrata assessed as available calcium in test solution at 0.125 ppm after 9 weeks. Format: functional.
The subject of assay [23] is Esophagus. The experiment in a line: Effect on Biomphalaria glabrata esophageal rhythmicity assessed as potentiation of tissue contracture in presence of 10 uM propranolol. It is filed as functional, tissue-based.
The test system of assay [24] is Esophagus. In words: Effect on Biomphalaria glabrata esophageal rhythmicity assessed as potentiation of tissue contracture in presence of 0.1 mM lanthanum. Format: functional, tissue-based.
Assay [25] deals with Biomphalaria glabrata. The experiment in a line: Inhibition of calcium uptake in Biomphalaria glabrata assessed as available calcium in test solution at 0.125 ppm after 7 weeks. It is filed as functional.
Assay [26] concerns Biomphalaria glabrata. The experiment in a line: Inhibition of calcium uptake in Biomphalaria glabrata assessed as available calcium in test solution at 0.25 ppm after 7 weeks. Format: functional.
Assay [27] has as its system Biomphalaria glabrata. In words: Inhibition of calcium uptake in Biomphalaria glabrata assessed as available calcium in test solution at 0.25 ppm after 3 weeks. Format: functional.
Assay [28] has as its system Esophagus. In words: Effect on Biomphalaria glabrata esophageal rhythmicity assessed as potentiation of tissue contracture in presence of 1 uM atropine. It is filed as functional, tissue-based.
Assay [29] deals with Biomphalaria glabrata. The experiment in a line: Inhibition of calcium uptake in Biomphalaria glabrata assessed as available calcium in test solution at 0.125 ppm after 6 weeks. Format: functional.
In assay [30] the test system is Biomphalaria glabrata. In words: Inhibition of calcium uptake in Biomphalaria glabrata assessed as available calcium in test solution at 0.25 ppm after 2 weeks. It is filed as functional.
The test system of assay [31] is Biomphalaria glabrata. In words: Effect on Biomphalaria glabrata intestinal rhythmicity assessed as potentiation of tissue contracture in presence of 0.1 mM lanthanum. It is filed as functional, tissue-based. The conditions noted are these: Intestine.
Assay [32] has as its system Esophagus. In words: Effect on Biomphalaria glabrata esophageal rhythmicity assessed as potentiation of tissue contracture in presence of 1 to 100 nM methysergide. It is filed as functional, tissue-based.
The subject of assay [33] is Biomphalaria glabrata. In words: Effect on Biomphalaria glabrata intestinal rhythmicity assessed as potentiation of tissue contracture in presence of 1 to 100 nM cyproheptadine. Format: functional, tissue-based. The conditions noted are these: Intestine.
The subject of assay [34] is Esophagus. The experiment in a line: Effect on Biomphalaria glabrata esophageal rhythmicity assessed as enhanced tissue contracture at 4.0 x 10^-7 to 3 x 10^-6 M. Format: functional, tissue-based.
Assay [35] deals with Esophagus. In words: Effect on Biomphalaria glabrata esophageal rhythmicity assessed as tissue contraction in presence of 8.5 to 320 nM cyproheptadine. It is filed as functional, tissue-based.
Assay [36] deals with Biomphalaria glabrata. The experiment in a line: Effect on Biomphalaria glabrata intestinal rhythmicity assessed as potentiation in amplitude of contraction at 4.8 x 10^-10 M. Format: functional, tissue-based. The conditions noted are these: Intestine.
Assay [37] has as its system Esophagus. In words: Effect on Biomphalaria glabrata esophageal rhythmicity assessed as tissue contraction in presence of 8.5 to 320 nM methysergide. It is filed as functional, tissue-based.
The test system of assay [38] is Esophagus. In words: Effect on Biomphalaria glabrata esophageal rhythmicity assessed as increase in contraction at 1.0 x 10^-7 to 9.6 x 10^-6 M. Format: functional.
Assay [39] has as its system Biomphalaria glabrata. The experiment in a line: Effect on Biomphalaria glabrata intestinal rhythmicity assessed as increase in contraction at 1.2 x 10^-6 to 1.9 x 10^-5 M. It is filed as functional, tissue-based. To be noted: Intestine.
Assay [40] has as its system Biomphalaria glabrata. In words: Effect on Biomphalaria glabrata intestinal rhythmicity assessed as tissue contraction in presence of 8.5 to 320 nM methysergide. It is filed as functional, tissue-based. To be noted: Intestine.
Assay [41] concerns Esophagus. The experiment in a line: Effect on Biomphalaria glabrata esophageal rhythmicity assessed as increase in phasic contraction in relaxation phase at 1.92 x 10^-8 to 4 x 10^-7 M. Format: functional, tissue-based.
Assay [42] relates to Esophagus. In words: Effect on Biomphalaria glabrata esophageal rhythmicity assessed as potentiation in amplitude of contraction at 4.8 x 10^-10 M. Format: functional, tissue-based.
Assay [43] relates to Biomphalaria glabrata. In words: Effect on Biomphalaria glabrata intestinal rhythmicity assessed as tissue contraction in presence of 8.5 to 320 nM cyproheptadine. It is filed as functional, tissue-based. To be noted: Intestine.

As for `CC(=O)N[C@H]1[C@H](O[C@H]2CC[C@]3(C)[C@H]4CC=C5[C@H]6CC(C)(C)CC[C@]6(C(=O)O)CC[C@@]5(C)[C@]4(C)CC[C@H]3C2(C)C)O[C@H](CO)[C@@H](O)[C@@H]1O` [ARIDANIN], the Activity in the assay on Biomphalaria glabrata [1] is 70.8 ppm; with Biomphalaria glabrata [2] it was 28.9 ppm; with Biomphalaria glabrata [4] it was 26.5 ppm; with Biomphalaria glabrata [9], 19 ppm; in the assay with Biomphalaria glabrata [11], 28.2 ppm; with Biomphalaria glabrata [12] it was 18.7 ppm. Besides, the Activity is 28.3 ppm in the assay on Biomphalaria glabrata [14]; 90.4 ppm in the assay on Biomphalaria glabrata [15]; 49.8 ppm with Biomphalaria glabrata [16]; 52.5 ppm in the assay with Biomphalaria glabrata [17]; 19.9 ppm in the assay on Biomphalaria glabrata [18]; 22.2 ppm with Biomphalaria glabrata [19]. In addition, the Activity in the assay with Biomphalaria glabrata [20] is given as 89 ppm; with Biomphalaria glabrata [21] it was 47.7 ppm; with Biomphalaria glabrata [22], 69.6 ppm; in the assay on Biomphalaria glabrata [25] it was 68.7 ppm; in the assay on Biomphalaria glabrata [26], 73 ppm; in the assay with Biomphalaria glabrata [27], 24.2 ppm. Further, the values for the Activity in the assay with Biomphalaria glabrata [29] and in the assay with Biomphalaria glabrata [30] were 51.1 ppm and 19.8 ppm, respectively. The outcome in the assay on Biomphalaria glabrata [3], with Biomphalaria glabrata [5], with Biomphalaria glabrata [7], in the assay on Biomphalaria glabrata [13], with Esophagus [23] and with Esophagus [28] was Active. In addition, the result with Esophagus [32] and with Esophagus [34] was Active. In addition, the result in the assay on Esophagus [6], in the assay with Biomphalaria glabrata [8], with Esophagus [10], in the assay on Esophagus [24], with Biomphalaria glabrata [31] and in the assay on Biomphalaria glabrata [33] was inactive.

Take `NCCc1c[nH]c2ccc(O)cc12`: the result in the assay with Esophagus [35], in the assay with Esophagus [37], with Biomphalaria glabrata [40] and in the assay on Biomphalaria glabrata [43] was inactive. Besides, the outcome in the assay with Biomphalaria glabrata [36], in the assay on Esophagus [38], in the assay with Biomphalaria glabrata [39], in the assay with Esophagus [41] and in the assay on Esophagus [42] was Active.
